US9981923B2, “1,2,3 Triazole antifungal agents and preparation thereof” (COUNCIL OF SCIENTIFIC & INDUSTRIAL RESEARCH, priority 2014, dated 2018)
In brackets after ≈: the same amount, converted by molar mass. Read-outs that look alike come from different tables or passages of the source.

Legend:
Assay in all cases: Antifungal susceptibility by microbroth dilution (CLSI)
Type in all cases: cell-based
[1] = system: Aspergillus fumigatus MCC 1046
Experimental: (§1) The synthesized compounds were evaluated for antifungal susceptibility by microbroth dilution method according to the recommendations of the Clinical Laboratory Standards Institute (CLSI 2008). Briefly, appropriate amount of compounds were dissolved in dimethyl sulfoxide to get 100× final strength. The stock was then diluted 1:50 in RPMI/YPG medium and 200 μl from this was added to the first row of a 96-well microtitre plate. The compounds were serially diluted two fold in successive wells to get a range of 1-128 μg/ml. Fungal yeast cells (˜2×10^3 cfu/mL), freshly grown in YPG broth in logarithmic phase, were suspended in the medium and inoculated (100 μl) in the wells of the plate. For filamentous fungi, 2×10^4 spores/mL were added. The microtitre plate was incubated for 48 h, and the absorbance was measured at 600 nm by using microtitre plate reader to assess cell growth.

[2] = system: Aspergillus niger ATCC 10578
Experimental: as §1

C. tropicalis ATCC 750 = conditions: Candida tropicalis, ATCC750; Table 2
Experimental: as §1

[3] = system: Candida albicans ATCC 24433
Experimental: as §1

[4] = system: Cryptococcus neoformans ATCC 34664
Experimental: as §1

[5] = system: Candida albicans ATCC 10231
Experimental: as §1

[6] = system: Candida glabrata NCYC 388
Experimental: as §1

[7] = Aspergillus fumigatus, MCC1046, Table 2, read-out: MIC values
[8] = Aspergillus niger, ATCC10578, Table 2, read-out: MIC values
[9] = Candida albicans, ATCC24433, Table 2, read-out: MIC values
[10] = Cryptococcus neoformans, ATCC34664, Table 2, read-out: MIC values
[11] = Table 1, 48 h, >90% inhibition of growth
[12] = Table 1, 48 h, >90% inhibition of growth, range 1-128 μg/ml
[13] = Candida albicans, ATCC10231, Table 2, read-out: MIC values
[14] = Nakaseomyces glabratus, NCYC388, Table 2, read-out: MIC values

SMILES	MIC [1, 7]	MIC [2, 8]	MIC (C. tropicalis ATCC 750)	MIC [3, 9]	MIC [4, 10]	MIC [1, 11]	MIC [2, 11]	MIC [5, 11]	MIC [3, 12]	MIC [6, 11]	MIC [4, 11]	MIC [5, 13]	MIC [6, 14]
CC(O)(Cc1cn(-c2ccc(F)cc2O)nn1)c1ccc(Cl)cc1 (stereo not drawn) [Compound 3ec, 2-(4-(2-(4-Chlorophenyl)-2-hydroxypropyl)-1H-1,2,3-triazol-1-yl)-5-fluorophenol]	64 µg/mL (≈ 184 µM)	128 µg/mL (≈ 368 µM)	128 µg/mL (≈ 368 µM)	8 µg/mL (≈ 23 µM)	128 µg/mL (≈ 368 µM)	–	–	–	–	–	–	–	–
CCCCC(O)(Cc1cn(-c2ccc(Cl)cc2O)nn1)c1ccccc1 (stereo not drawn) [Compound 2hb]	–	–	–	–	–	>128 µg/mL	>128 µg/mL	>128 µg/mL	64 µg/mL (≈ 172 µM)	64 µg/mL (≈ 172 µM)	32 µg/mL (≈ 86.1 µM)	–	–
CC(O)(Cc1cn(-c2cc(Cl)ccc2O)nn1)c1ccc(F)cc1F (stereo not drawn) [Compound 3aa, 4-Chloro-2-(4-(2-(2,4-difluorophenyl)-2-hydroxypropyl)-1H-1,2,3-triazol-1-yl)phenol]	> 256 µg/mL	128 µg/mL (≈ 350 µM)	128 µg/mL (≈ 350 µM)	32 µg/mL (≈ 87.5 µM)	64 µg/mL (≈ 175 µM)	–	–	–	–	–	–	32 µg/mL (≈ 87.5 µM)	32 µg/mL (≈ 87.5 µM)
CC(O)(Cc1cn(-c2ccccc2O)nn1)c1ccc(Cl)cc1Cl (stereo not drawn) [Compound 3bd, 2-(4-(2-(2,4-Dichlorophenyl)-2-hydroxypropyl)-1H-1,2,3-triazol-1-yl)phenol]	16 µg/mL (≈ 43.9 µM)	32 µg/mL (≈ 87.9 µM)	64 µg/mL (≈ 176 µM)	8 µg/mL (≈ 22 µM)	32 µg/mL (≈ 87.9 µM)	–	–	–	–	–	–	–	–
CC(O)(Cc1cn(-c2ccccc2O)nn1)c1ccc(F)cc1 (stereo not drawn) [Compound 3dd, 2-(4-(2-(4-Fluorophenyl)-2-hydroxypropyl)-1H-1,2,3-triazol-1-yl)phenol]	256 µg/mL (≈ 817 µM)	256 µg/mL (≈ 817 µM)	> 256 µg/mL	64 µg/mL (≈ 204 µM)	256 µg/mL (≈ 817 µM)	–	–	–	–	–	–	–	–
CC(O)(Cc1cn(-c2ccc(F)cc2O)nn1)c1ccc(Br)cc1 (stereo not drawn) [Compound 3fc, 2-(4-(2-(4-Bromophenyl)-2-hydroxypropyl)-1H-1,2,3-triazol-1-yl)-5-fluorophenol]	64 µg/mL (≈ 163 µM)	128 µg/mL (≈ 326 µM)	128 µg/mL (≈ 326 µM)	8 µg/mL (≈ 20.4 µM)	64 µg/mL (≈ 163 µM)	–	–	–	–	–	–	16 µg/mL (≈ 40.8 µM)	64 µg/mL (≈ 163 µM)
CC(O)(Cc1cn(-c2ccc(F)cc2O)nn1)c1ccc(Cl)cc1Cl (stereo not drawn) [Compound 3bc, 2-(4-(2-(2,4-Dichlorophenyl)-2-hydroxypropyl)-1H-1,2,3-triazol-1-yl)-5-fluorophenol]	64 µg/mL (≈ 167 µM)	64 µg/mL (≈ 167 µM)	32 µg/mL (≈ 83.7 µM)	16 µg/mL (≈ 41.9 µM)	16 µg/mL (≈ 41.9 µM)	–	–	–	–	–	–	8 µg/mL (≈ 20.9 µM)	16 µg/mL (≈ 41.9 µM)
Oc1cc(Cl)ccc1-n1cc(CC(O)c2ccc(C(F)(F)F)cc2F)nn1 (stereo not drawn) [Compound 3cb, 5-Chloro-2-(4-(2-(2-fluoro-4-(trifluoromethyl)phenyl)-2-hydroxyethyl)-1H-1,2,3-triazol-1-yl)phenol]	> 256 µg/mL	> 256 µg/mL	> 256 µg/mL	16 µg/mL (≈ 39.8 µM)	> 256 µg/mL	–	–	–	–	–	–	–	–
CC(O)(Cc1cn(-c2ccc(F)cc2O)nn1)c1ccc(F)cc1F (stereo not drawn) [Compound 3ac, 2-(4-(2-(2,4-Difluorophenyl)-2-hydroxypropyl)-1H-1,2,3-triazol-1-yl)-5-fluorophenol]	64 µg/mL (≈ 183 µM)	128 µg/mL (≈ 366 µM)	128 µg/mL (≈ 366 µM)	8 µg/mL (≈ 22.9 µM)	128 µg/mL (≈ 366 µM)	–	–	–	–	–	–	–	–
CC(O)(Cc1cn(-c2cc(Cl)ccc2O)nn1)c1ccc(Cl)cc1 (stereo not drawn) [Compound 3ea, 4-Chloro-2-(4-(2-(4-chlorophenyl)-2-hydroxypropyl)-1H-1,2,3-triazol-1-yl)phenol]	64 µg/mL (≈ 176 µM)	64 µg/mL (≈ 176 µM)	64 µg/mL (≈ 176 µM)	16 µg/mL (≈ 43.9 µM)	32 µg/mL (≈ 87.9 µM)	–	–	–	–	–	–	8 µg/mL (≈ 22 µM)	16 µg/mL (≈ 43.9 µM)
CCC(O)(c1ccccc1)c1cn(-c2ccc(Cl)cc2O)nn1 (stereo not drawn) [Compound 2db]	–	–	–	–	–	128 µg/mL (≈ 388 µM)	128 µg/mL (≈ 388 µM)	128 µg/mL (≈ 388 µM)	>128 µg/mL	64 µg/mL (≈ 194 µM)	128 µg/mL (≈ 388 µM)	–	–
CC(O)(Cc1cn(-c2ccccc2O)nn1)c1ccc(Br)cc1 (stereo not drawn) [Compound 3fd, 2-(4-(2-(4-Bromophenyl)-2-hydroxypropyl)-1H-1,2,3-triazol-1-yl)phenol]	128 µg/mL (≈ 342 µM)	128 µg/mL (≈ 342 µM)	256 µg/mL (≈ 684 µM)	32 µg/mL (≈ 85.5 µM)	128 µg/mL (≈ 342 µM)	–	–	–	–	–	–	–	–
CC(O)(Cc1cn(-c2ccccc2O)nn1)c1ccc(Cl)cc1 (stereo not drawn) [Compound 3ed, 2-(4-(2-(4-Chlorophenyl)-2-hydroxypropyl)-1H-1,2,3-triazol-1-yl)phenol]	64 µg/mL (≈ 194 µM)	128 µg/mL (≈ 388 µM)	256 µg/mL (≈ 776 µM)	8 µg/mL (≈ 24.3 µM)	128 µg/mL (≈ 388 µM)	–	–	–	–	–	–	–	–
CC(O)(Cc1cn(-c2ccc(Cl)cc2O)nn1)c1ccc(F)cc1F (stereo not drawn) [Compound 3ab, 5-Chloro-2-(4-(2-(2,4-difluorophenyl)-2-hydroxypropyl)-1H-1,2,3-triazol-1-yl)phenol]	64 µg/mL (≈ 175 µM)	64 µg/mL (≈ 175 µM)	64 µg/mL (≈ 175 µM)	16 µg/mL (≈ 43.7 µM)	32 µg/mL (≈ 87.5 µM)	–	–	–	–	–	–	32 µg/mL (≈ 87.5 µM)	32 µg/mL (≈ 87.5 µM)
CC(O)(Cc1cn(-c2cc(Cl)ccc2O)nn1)c1ccc(Cl)cc1Cl (stereo not drawn) [Compound 3ba, 4-Chloro-2-(4-(2-(2,4-dichlorophenyl)-2-hydroxypropyl)-1H-1,2,3-triazol-1-yl)phenol]	> 256 µg/mL	> 256 µg/mL	> 256 µg/mL	32 µg/mL (≈ 80.3 µM)	> 256 µg/mL	–	–	–	–	–	–	–	–
CC(O)(Cc1cn(-c2ccc(Cl)cc2O)nn1)c1ccc(F)cc1 (stereo not drawn) [Compound 3db, 5-Chloro-2-(4-(2-(4-fluorophenyl)-2-hydroxypropyl)-1H-1,2,3-triazol-1-yl)phenol]	32 µg/mL (≈ 92 µM)	64 µg/mL (≈ 184 µM)	128 µg/mL (≈ 368 µM)	16 µg/mL (≈ 46 µM)	128 µg/mL (≈ 368 µM)	–	–	–	–	–	–	–	–
CCC(O)(c1ccccc1)c1cn(-c2cc(Cl)ccc2O)nn1 (stereo not drawn) [Compound 2da]	–	–	–	–	–	128 µg/mL (≈ 388 µM)	64 µg/mL (≈ 194 µM)	–	128 µg/mL (≈ 388 µM)	128 µg/mL (≈ 388 µM)	>128 µg/mL	–	–
Oc1cc(F)ccc1-n1cc(CC(O)c2ccc(C(F)(F)F)cc2F)nn1 (stereo not drawn) [Compound 3cc, 5-Fluoro-2-(4-(2-(2-fluoro-4-(trifluoromethyl)phenyl)-2-hydroxyethyl)-1H-1,2,3-triazol-1-yl)phenol]	> 256 µg/mL	> 256 µg/mL	> 256 µg/mL	128 µg/mL (≈ 332 µM)	> 256 µg/mL	–	–	–	–	–	–	–	–
CC(O)(Cc1cn(-c2ccccc2O)nn1)c1ccc(F)cc1F (stereo not drawn) [Compound 3ad, 2-(4-(2-(2,4-Difluorophenyl)-2-hydroxypropyl)-1H-1,2,3-triazol-1-yl)phenol]	128 µg/mL (≈ 386 µM)	128 µg/mL (≈ 386 µM)	256 µg/mL (≈ 773 µM)	8 µg/mL (≈ 24.1 µM)	128 µg/mL (≈ 386 µM)	–	–	–	–	–	–	–	–
CC(O)(Cc1cn(-c2ccc(F)cc2O)nn1)c1ccc(F)cc1 (stereo not drawn) [Compound 3dc, 5-Fluoro-2-(4-(2-(4-fluorophenyl)-2-hydroxypropyl)-1H-1,2,3-triazol-1-yl)phenol]	128 µg/mL (≈ 386 µM)	256 µg/mL (≈ 773 µM)	> 256 µg/mL	64 µg/mL (≈ 193 µM)	256 µg/mL (≈ 773 µM)	–	–	–	–	–	–	–	–
CC(O)(Cc1cn(-c2cc(Cl)ccc2O)nn1)c1ccc(Br)cc1 (stereo not drawn) [Compound 3fa, 2-(4-(2-(4-Bromophenyl)-2-hydroxypropyl)-1H-1,2,3-triazol-1-yl)-4-chlorophenol]	16 µg/mL (≈ 39.2 µM)	32 µg/mL (≈ 78.3 µM)	64 µg/mL (≈ 157 µM)	4 µg/mL (≈ 9.79 µM)	32 µg/mL (≈ 78.3 µM)	–	–	–	–	–	–	–	–
